# Data from patent publication US20180303101A1, “METHOD OF IMPROVING GRASS QUALITY” (priority 2004, published 2018).
# What was measured:
# Assay type in all cases: in vivo
# [1] = test system: Penncross creeping bentgrass; assay: Turf quality visual rating at high temperature treatment (Example 1); details: high temperature 35/30° C., biweekly foliar application
# From the text: (§1) The following test methods were used to compare the effectiveness of a phthalocyanine composition according to the invention with known compositions. The following compositions were used in the experiments: Pigment Green 7 obtained from Sun Chemical Corporation as the water-dispersible product SUN T-64-1660 (containing 45 to 55 wt. % of Pigment Green 7) was used alone. A mixture of Pigment Green 7 and fosetyl-al was used as the commercially available product Chipco® Signature™ fungicide from Bayer Environmental Science, Montvale, N.J. The compound fosetyl-al was used as Chipco® Aliette® WDG fungicide available from Bayer Environmental Science, Montvale N.J.
# Seeds of “Penncross” creeping bentgrass were sown in polyvinyl chloride (PVC) tubes (10 cm in diameter and 20 cm in length) filled with coarse sand. Plants were kept in a growth chamber for 90 days before treatment stated to allow root and canopy establishment. The daily temperature in the growth chamber was 20/16° C., the photosynthetic photon flux density was 400 μmol m−2 s−1, and the photoperiod was 12 hours/day. Turf was mowed twice weekly at 4 mm with scissors, irrigated every other day until there was free drainage from the bottom of tubes, and fertilized weekly with 40 ml full-strength Hoagland's nutrient solution (Hoagland and Arnon, 1950). Insecticide was applied to kill whitefly when necessary. […]
# [2] = test system: Penncross creeping bentgrass; assay: Canopy net photosynthetic rate at high temperature treatment (Example 1)
# From the text: as §1
# (§2) Seeds of “Penncross” creeping bentgrass were sown in polyvinyl chloride (PVC) tubes (10 cm in diameter and 20 cm in length) filled with coarse sand. Plants were kept in a growth chamber for 90 days before treatment stated to allow root and canopy establishment. The daily temperature in the growth chamber was 20/16° C., the photosynthetic photon flux density was 400 μmol m−2 s−1, and the photoperiod was 12 hours/day. […]
# Canopy net photosynthetic rate was measured as described below using a Li-6400 portable photosynthesis system (available from LiCor, Lincoln, NB).
# [3] = test system: Penncross creeping bentgrass; assay: Root mortality at high temperature treatment (Example 1); details: plants with or without pretreatment
# From the text: as §1, §2
# Root mortality was measured using the method of Knievel (1973) with modification.
# Samples of 0.5 g clean fresh roots were incubated with 10 mL 0.6% 2,3,5-triphenyltetrazolium chloride (in 0.05 M phosphate buffer, pH 7.4) for 24 hours in the dark at 30° C. […] Absorbance at 490 nm was used to determine root mortality.
# [4] = test system: creeping bentgrass (variety Penncross) turf; assay: Bentgrass color rating after foliar spray (Example 4); details: 6 weeks after treatment; iprodione 4 oz/1000 sq. ft.; Pigment Green 7 6.8 or 13.6 g/1000 sq. ft. in combination, 13.6 g alone
# From the text: Pigment Green 7 was suspended in water and applied as a foliar spray to creeping bentgrass (variety Penncross) turf with a pressurized sprayer at a spray volume of 1.37 gallons of water per 1000 sq. ft. (ca. 560 l/ha). Pigment Green 7 was applied at rates of 6.8, 13.9, and 20.4 grams per 1000 sq. ft. (0.73, 1.5, and 2.2 kg/ha, respectively). Each treatment was replicated 4 times. An untreated plot was included and was also replicated four times. The average color of the bentgrass was visually evaluated at 6 weeks after treatment. Color was evaluated on a qualitative scale from 1-9, with 9 being the highest quality and 1 the lowest quality.
# The procedure of Example 2 was repeated using iprodione fungicide (in the form of 26 GT brand iprodione fungicide) at 4 oz/1000 sq. ft. (ca. 1.3 mL/m2), iprodione at 4 oz/1000 sq. ft. (ca. 1.3 mL/m2) plus Pigment Green 7 at 6.8 g/1000 sq. ft. (0.73 kg/ha), iprodione at 4 oz/1000 sq. ft. plus Pigment Green 7 at 13.6 g/1000 sq. ft. (1.5 kg/ha), and Pigment Green 7 at 13.6 g/1000 sq. ft. (1.5 kg/ha). At 6 weeks after treatment, the color ratings were as follows.
# [5] = test system: Penncross creeping bentgrass; assay: Influence of foliar applied phthalocyanine pigment on creeping bentgrass photosynthesis (Example 9)
# Description: Studies carried out as a follow-up to Example 1 were conducted in 2005 to determine the influence of foliar applied phthalocyanine pigment on creeping bentgrass photosynthesis.
# “Penncross” creeping bentgrass plants were grown in a growth chamber on a sand soil in PVC tubes (10 cm in diameter) maintained at 20° C. Plants were maintained at a canopy height of approximately 5 cm and a nutrient solution was applied weekly to maintain adequate fertility. Four plants were treated with Pigment Green 7 at a rate of 6.92 g/1000 sq. ft. (0.74 kg/ha) (with 0.6% Tween 20 being added to keep the pigment on the leaves for better absorption) and four plants were left untreated to serve as the controls (being sprayed with water only). Photochemical efficiency, chlorophyll content, and single leaf net photosynthesis were measured at one, three, seven, and fourteen days after application. Different light intensities of 1500, 750, 500, 250, 150, 50, and 0 μmol m−2 s−1 of photosynthetically active radiation (PAR, 400-700 nm) were generated inside the leaf chamber by an LED light source to generate a light response curve. Net photosynthesis was measured as the rate of CO2 uptake φmol m−2s−1). […] Photosynthesis was higher from the first day after application and all subsequent sampling dates. […] However at intensities of from 50 to 1500 μmol photons m−2 s−1 treated plants were more efficient in utilizing the constant amount of light produced in the leaf chamber.
# [6] = 20° C., 6.92 g/1000 sq. ft. with 0.6% Tween 20, 1, 3, 7, 14 days after application
substance,measurement,setting,value
Pigment Green 7,"Turf quality (visual, scale 0 to 9)",[1]; plants with pretreatment (sprayed 4 weeks before heat),highest
same,"Turf quality (visual, scale 0 to 9)",[1]; plants without pretreatment,"higher turf quality than applications of Signature fungicide, Aliette fungicide, and water"
same,Net photosynthetic rate (Pn),[2]; plants with pretreatment,higher with application of Pigment Green 7 and Signature fungicide than with application of Aliette fungicide and water
same,Net photosynthetic rate (Pn),[2]; plants without pretreatment,highest
same,Root mortality,[3],lower root mortality than application of Signature fungicide and Aliette fungicide
same,Color rating versus untreated check,[4],significantly greener than the untreated
same,Light compensation point,[5]; 6.92 g/1000 sq. ft. foliar application,unaltered by treatment
same,"Photochemical efficiency (Fv/Fm), treated versus control plants",[5]; [6],No differences
same,"Total chlorophyll per gram of tissue, treated versus control plants",[5]; [6],no statistically significant differences
same,"Single leaf net photosynthesis (rate of CO2 uptake), treated versus control plants","[5]; all light intensities greater than 50 μmol photons m−2 s−1, 6.92 g/1000 sq. ft., from first day and all subsequent sampling dates",higher for treated plants compared to controls
same,Stability after foliar application (from higher net photosynthesis on every date),"[5]; on bentgrass leaves, 6.92 g/1000 sq. ft.",stable for at least fourteen days after foliar application
